Laboratory results as given in patent US8759376B2, “Isoxazole and isothiazole compounds useful in the treatment of inflammation” (The Feinstein Institute for Medical Research, priority 2003, dated 2014).
“And” between values parts separate entries of the source, which are not always exact repeats. Equal entries are not always repeated.

How the values were obtained:
[1] = tested on: TNF; test: TNF production by LPS-stimulated primary human macrophages (ELISA); assay type: cell-based; settings: LPS 100 ng/ml, 4 hours
Method: Human macrophage cultures were prepared as follows. Buffy coats were collected from the blood of healthy individual donors to the Long Island Blood Bank Services (Melville, N.Y.). Primary blood mononuclear cells were isolated by density-gradient centrifugation through Ficoll/Hypaque (Pharmacia, N.J.), suspended (8×10^6 cells/ml) in RPMI 1640 medium supplemented with 10% heat inactivated human serum (Gemini Bio-Products, Inc., Calabasas, Calif.), and seeded in flasks (PRIMARIA; Beckton and Dickinson Labware, Franklin Lakes, N.J.). After incubation for 2 hours at 37° C., adherent cells were washed extensively, treated briefly with 10 mM EDTA, detached, resuspended (10^6 cells/ml) in RPMI medium (10% human serum), supplemented with human macrophage colony stimulating factor (MCSF; Sigma Chemical Co., St. Louis, Mo.; 2 ng/ml), and seeded onto 24-well tissue culture plates (PRIMARIA; Falcon) (10^6 cells/well). Cells were allowed to differentiate for 7 days in the presence of MCSF. On day 7 the cells were washed 3 times with 1× Dulbecco's phosphate buffered saline (PBS, GibcoBRL, Life Technologies, Rockville, Md.), fresh medium devoid of MCSF was added, and experiments performed as indicated. […]

[2] = tested on: female BALB/c mice; test: Localized Shwartzman reaction model, ear immunostaining; assay type: in vivo; settings: i.p.; ears 5 hours after LPS challenge; compared to vehicle-treated animals
Method: The localized Shwartzman reaction was performed as previously described (C. Sunderkotter, S. Seeliger, F. Schonlau, J. Roth, R. Hallmann, T. A. Luger, C. Sorg, and G. Kolde. 2001. Different pathways leading to cutaneous leukocytoclastic vasculitits in mice. Exp Dermatol 10:391-404.). Briefly, female BALB/c mice (22-26 g, Taconic) were injected with saline or Compound VIf (i.p., at the indicated doses), and then injected s.c. into the pinnae of the ear with 20 Φg LPS (preparatory dose). One day later, mice (4 per group) were injected either with vehicle (saline) or […] (i.p., at the indicated doses) 15 min prior to challenge with LPS (150 Φg, i.p.) To generate a localized vasculitic reaction. Five hours later, mice were sacrificed by CO2 asphyxiation, and the ears were excised and cut in half longitudinally. Ears were flash frozen in liquid nitrogen and stored at −80 EC. Each experiment was repeated twice. […]
After immunostaining, slides were counterstained with H&E, dehydrated, and mounted with permount. For enumeration of positive staining, three fields per section (three sections per sample) were assessed at 200× magnification and scored as the average number (+SD) of VCAM-1 or E-selectin positive capillaries/vessels. […]

[3] = tested on: female Swiss Webster mice; test: Carrageenan air pouch model, pouch fluid cytokines by ELISA; assay type: in vivo; settings: 12 mg/kg i.p.
[4] = tested on: α-bungarotoxin sensitive receptor on the RAW 264.7 cells; assay type: cell-based, murine

c1ccc(C2CC(c3cccnc3)=NO2)nc1 (centres unmarked) [(VI d)]
TNF release [1]: inhibited TNF release in a dose dependent manner | efficacy on TNF release compared with control (nicotine) [1]: comparable to or better than that of the control

c1cncc(C2=NOC(c3ccncc3)C2)c1 (centres unmarked) [Compound (VI f)]
E-selectin protein expression by the endothelium [2]: reduced | VCAM-1 protein expression by the endothelium [2]: reduced | reduction of pouch fluid levels of MCP-1 [3]: 20% and 30% | reduction of pouch TNF levels ([3]; compared to vehicle-treated controls): 40% | pouch TNF level, % of control ([3]; control 100±7%): 60±11%

α-bungarotoxin
effect on the inhibition of LPS-mediated TNFα release by compound (VI f) [4]: partially abrogated the inhibitory effect
